Results published in ChEMBL document CHEMBL1201862, “PubChem BioAssay data set” (2004).
The source made the active and inactive calls.

Legend:
[1] = molecular target: Peroxisome proliferator-activated receptor gamma/Nuclear receptor coactivator 2 (Homo sapiens, UniProt P37231); assay type: functional;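 further: agonist potency for raising coactivator recruitment to the receptor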
[2] = molecular target: Peroxisome proliferator-activated receptor gamma/Nuclear receptor coactivator 1 (Homo sapiens, UniProt P37231); assay type: functional;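 further: agonist potency as compounds enhance coactivator SRC-1 recruitment to PPARgamma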
[3] = molecular target: Peroxisome proliferator-activated receptor gamma/Nuclear receptor coactivator 3 (Homo sapiens, UniProt P37231); assay type: functional;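 further: agonist potency for raising coactivator recruitment to the receptor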
Peroxisome proliferator-activated receptor gamma/Nuclear receptor coactivator 3, sequence (P37231 whole entry): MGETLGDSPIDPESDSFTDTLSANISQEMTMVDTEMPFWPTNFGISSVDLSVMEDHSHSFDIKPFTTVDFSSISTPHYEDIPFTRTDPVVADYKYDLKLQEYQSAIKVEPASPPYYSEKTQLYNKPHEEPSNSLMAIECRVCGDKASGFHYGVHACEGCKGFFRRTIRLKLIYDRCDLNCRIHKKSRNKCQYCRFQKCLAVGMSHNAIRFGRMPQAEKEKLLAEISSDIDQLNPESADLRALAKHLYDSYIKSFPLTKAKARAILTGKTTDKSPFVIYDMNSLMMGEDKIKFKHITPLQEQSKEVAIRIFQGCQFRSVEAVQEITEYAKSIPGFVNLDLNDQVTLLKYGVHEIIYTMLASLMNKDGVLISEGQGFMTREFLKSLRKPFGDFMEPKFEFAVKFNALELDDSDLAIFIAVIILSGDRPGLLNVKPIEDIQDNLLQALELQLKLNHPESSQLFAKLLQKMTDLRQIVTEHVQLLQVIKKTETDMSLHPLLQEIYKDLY
Peroxisome proliferator-activated receptor gamma/Nuclear receptor coactivator 3, sequence (Q9Y6Q9 whole entry, further chain): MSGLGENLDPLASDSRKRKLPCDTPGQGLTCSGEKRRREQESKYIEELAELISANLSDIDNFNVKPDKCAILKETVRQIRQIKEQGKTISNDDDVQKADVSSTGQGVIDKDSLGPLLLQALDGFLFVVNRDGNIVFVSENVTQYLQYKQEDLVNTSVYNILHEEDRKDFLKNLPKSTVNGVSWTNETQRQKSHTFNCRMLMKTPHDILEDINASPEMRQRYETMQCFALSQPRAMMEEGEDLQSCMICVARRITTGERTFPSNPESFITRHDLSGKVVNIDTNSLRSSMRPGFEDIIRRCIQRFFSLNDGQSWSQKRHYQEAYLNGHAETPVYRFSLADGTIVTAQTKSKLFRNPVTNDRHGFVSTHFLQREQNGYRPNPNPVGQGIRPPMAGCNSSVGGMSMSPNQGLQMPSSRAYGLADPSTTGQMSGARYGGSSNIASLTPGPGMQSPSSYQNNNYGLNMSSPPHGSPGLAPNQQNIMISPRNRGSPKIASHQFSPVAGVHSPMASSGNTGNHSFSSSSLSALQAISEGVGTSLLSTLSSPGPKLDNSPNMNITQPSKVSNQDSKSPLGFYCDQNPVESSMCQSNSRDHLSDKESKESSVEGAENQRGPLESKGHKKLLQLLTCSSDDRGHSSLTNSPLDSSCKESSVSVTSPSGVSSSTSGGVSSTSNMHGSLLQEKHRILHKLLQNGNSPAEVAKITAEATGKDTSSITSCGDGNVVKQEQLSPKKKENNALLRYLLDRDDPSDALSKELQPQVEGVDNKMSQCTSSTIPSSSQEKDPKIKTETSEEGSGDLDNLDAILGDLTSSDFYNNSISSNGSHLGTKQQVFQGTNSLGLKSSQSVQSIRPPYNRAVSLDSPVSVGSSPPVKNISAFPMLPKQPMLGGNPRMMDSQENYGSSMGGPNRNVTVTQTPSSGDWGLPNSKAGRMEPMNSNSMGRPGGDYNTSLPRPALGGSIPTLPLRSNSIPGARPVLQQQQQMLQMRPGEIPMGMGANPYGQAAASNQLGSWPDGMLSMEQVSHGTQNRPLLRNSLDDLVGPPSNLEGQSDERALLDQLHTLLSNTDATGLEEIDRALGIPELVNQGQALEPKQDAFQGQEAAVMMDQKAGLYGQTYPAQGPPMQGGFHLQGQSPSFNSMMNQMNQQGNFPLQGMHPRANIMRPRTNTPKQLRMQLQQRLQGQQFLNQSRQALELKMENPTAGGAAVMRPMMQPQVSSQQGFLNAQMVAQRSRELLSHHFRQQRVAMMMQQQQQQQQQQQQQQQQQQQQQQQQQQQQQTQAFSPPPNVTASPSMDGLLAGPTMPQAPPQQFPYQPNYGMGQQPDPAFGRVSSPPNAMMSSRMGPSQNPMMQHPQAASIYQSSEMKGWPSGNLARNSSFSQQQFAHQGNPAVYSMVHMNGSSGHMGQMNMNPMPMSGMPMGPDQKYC

Vero = assay: mammalian cell viability reduction – secondary assay, cytotoxicity control for West Nile virus antiviral project, dose response (AID 1650); assay type: functional, Chlorocebus sabaeus; conditions: Chlorocebus sabaeus, Vero
Cytochrome P450 3A4 [4] = molecular target: T1, Cytochrome P450 3A4 (Homo sapiens, UniProt P08684);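 further: CYP3A4 tested as one member of a cytochrome P450 panel screen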
T1 sequence (P08684 whole entry): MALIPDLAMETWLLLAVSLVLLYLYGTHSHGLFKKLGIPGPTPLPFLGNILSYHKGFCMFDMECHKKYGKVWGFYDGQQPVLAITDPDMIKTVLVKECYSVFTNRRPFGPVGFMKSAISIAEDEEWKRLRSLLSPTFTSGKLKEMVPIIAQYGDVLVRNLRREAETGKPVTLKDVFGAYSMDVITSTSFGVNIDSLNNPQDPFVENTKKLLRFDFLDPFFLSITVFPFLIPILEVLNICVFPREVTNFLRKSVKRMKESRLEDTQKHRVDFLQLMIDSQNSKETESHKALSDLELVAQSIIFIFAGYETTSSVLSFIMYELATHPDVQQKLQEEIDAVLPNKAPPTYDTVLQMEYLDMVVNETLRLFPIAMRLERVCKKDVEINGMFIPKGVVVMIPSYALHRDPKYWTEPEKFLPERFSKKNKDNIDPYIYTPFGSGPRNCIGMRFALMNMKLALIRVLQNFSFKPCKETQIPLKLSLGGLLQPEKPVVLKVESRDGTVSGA

[5] = molecular target: T2, Neuropeptide Y receptor type 1 (Homo sapiens, UniProt P25929); assay type: functional;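 further: HEK293 cells with a CNG channel challenged with NPY then isoproterenol; potency as antagonist that reverses NPY suppression of cAMP signal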
T2 sequence (P25929 whole entry): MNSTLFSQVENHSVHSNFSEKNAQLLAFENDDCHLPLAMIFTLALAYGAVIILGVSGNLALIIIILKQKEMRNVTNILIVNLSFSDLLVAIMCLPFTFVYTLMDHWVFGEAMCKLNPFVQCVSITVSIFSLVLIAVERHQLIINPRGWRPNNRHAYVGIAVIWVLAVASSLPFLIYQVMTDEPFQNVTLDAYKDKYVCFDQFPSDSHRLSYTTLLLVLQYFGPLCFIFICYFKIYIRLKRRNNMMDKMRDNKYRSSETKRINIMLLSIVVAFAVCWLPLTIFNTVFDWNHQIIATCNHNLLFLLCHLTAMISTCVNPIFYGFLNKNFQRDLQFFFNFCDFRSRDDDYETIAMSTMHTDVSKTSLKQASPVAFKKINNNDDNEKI

[6] = molecular target: T3, Neuropeptide Y receptor type 2 (Homo sapiens, UniProt P49146); assay type: functional, cell-based;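 further: HEK293 cells expressing the receptor and a CNG channel; stimulus was NPY near EC95 followed by isoproterenol to raise cAMP; antagonist potency measured as restoring cAMP signal that NPY suppresses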
T3 sequence (P49146 whole entry): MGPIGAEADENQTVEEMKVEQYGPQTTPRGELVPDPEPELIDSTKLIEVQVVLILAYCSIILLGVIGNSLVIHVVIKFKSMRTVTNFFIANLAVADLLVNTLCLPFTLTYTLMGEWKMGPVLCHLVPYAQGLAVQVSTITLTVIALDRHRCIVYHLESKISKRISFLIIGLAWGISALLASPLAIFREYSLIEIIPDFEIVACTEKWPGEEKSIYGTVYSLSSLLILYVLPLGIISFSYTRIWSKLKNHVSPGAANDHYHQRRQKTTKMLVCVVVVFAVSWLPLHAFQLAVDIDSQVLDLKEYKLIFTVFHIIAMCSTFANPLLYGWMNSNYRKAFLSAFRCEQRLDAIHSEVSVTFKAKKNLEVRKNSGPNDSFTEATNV

Cytochrome P450 3A4 [7] = molecular target: T1, Cytochrome P450 3A4; remark: listed apart in the source
[8] = molecular target: Glyceraldehyde-3-phosphate dehydrogenase (Homo sapiens, UniProt P04406)
Glyceraldehyde-3-phosphate dehydrogenase, sequence (P04406 whole entry): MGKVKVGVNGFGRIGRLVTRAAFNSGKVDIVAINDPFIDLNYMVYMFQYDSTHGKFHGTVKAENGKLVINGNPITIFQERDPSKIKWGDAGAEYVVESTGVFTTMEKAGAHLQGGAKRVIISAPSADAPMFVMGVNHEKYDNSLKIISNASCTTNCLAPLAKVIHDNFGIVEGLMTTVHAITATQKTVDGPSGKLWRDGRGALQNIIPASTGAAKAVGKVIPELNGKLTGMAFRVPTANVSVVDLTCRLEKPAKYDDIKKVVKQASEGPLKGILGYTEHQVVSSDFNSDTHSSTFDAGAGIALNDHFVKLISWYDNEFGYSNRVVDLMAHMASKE

[9] = molecular target: T4, Alkaline phosphatase, tissue-nonspecific isozyme (Homo sapiens, UniProt P05186); assay: potency against alkaline phosphatase TNAP – biochemical, luminescent, dose response, SAR follow-up (AID 1056)
T4 sequence (P05186 whole entry): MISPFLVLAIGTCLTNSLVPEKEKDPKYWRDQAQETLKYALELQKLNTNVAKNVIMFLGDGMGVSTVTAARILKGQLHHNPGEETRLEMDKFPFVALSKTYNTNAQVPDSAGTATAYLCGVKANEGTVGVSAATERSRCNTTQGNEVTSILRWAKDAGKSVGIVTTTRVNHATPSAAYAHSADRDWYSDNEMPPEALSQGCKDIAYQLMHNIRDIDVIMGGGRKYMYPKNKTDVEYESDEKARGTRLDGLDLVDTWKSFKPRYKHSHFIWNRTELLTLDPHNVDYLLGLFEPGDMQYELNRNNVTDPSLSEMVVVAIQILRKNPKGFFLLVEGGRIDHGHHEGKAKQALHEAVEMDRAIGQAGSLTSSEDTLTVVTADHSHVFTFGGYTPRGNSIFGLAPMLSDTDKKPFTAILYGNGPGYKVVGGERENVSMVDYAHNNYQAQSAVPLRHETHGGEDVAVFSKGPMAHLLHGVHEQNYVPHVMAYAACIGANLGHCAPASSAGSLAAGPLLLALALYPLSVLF

[10] = THP-1 cell cytotoxicity, dose response, cytotoxicity control for non-replicating M. tuberculosis project (AID 489025); assay type: functional
[11] = HepG2 cell cytotoxicity, dose response, cytotoxicity control for non-replicating M. tuberculosis project (AID 489018); assay type: functional; conditions: Mycobacterium tuberculosis
[12] = Vero E6 cell cytotoxicity, dose response, cytotoxicity control for non-replicating M. tuberculosis project, secondary assay (AID 492998); assay type: functional, VeroE6; conditions: Vero C1008
cells = assay type: functional
Hexokinase = molecular target: T5, Hexokinase (Trypanosoma brucei, UniProt Q38C41); assay: Confirmation assay for inhibitors of Trypanosoma brucei hexokinase 1-Analogue-first series. [Related pubchem assays (depositor defined):AID1430, AID1632, AID2516, AID2560, AID2579, AID2600, AID449725, AID492951]; assay type: functional
T5 sequence (Q38C41 whole entry): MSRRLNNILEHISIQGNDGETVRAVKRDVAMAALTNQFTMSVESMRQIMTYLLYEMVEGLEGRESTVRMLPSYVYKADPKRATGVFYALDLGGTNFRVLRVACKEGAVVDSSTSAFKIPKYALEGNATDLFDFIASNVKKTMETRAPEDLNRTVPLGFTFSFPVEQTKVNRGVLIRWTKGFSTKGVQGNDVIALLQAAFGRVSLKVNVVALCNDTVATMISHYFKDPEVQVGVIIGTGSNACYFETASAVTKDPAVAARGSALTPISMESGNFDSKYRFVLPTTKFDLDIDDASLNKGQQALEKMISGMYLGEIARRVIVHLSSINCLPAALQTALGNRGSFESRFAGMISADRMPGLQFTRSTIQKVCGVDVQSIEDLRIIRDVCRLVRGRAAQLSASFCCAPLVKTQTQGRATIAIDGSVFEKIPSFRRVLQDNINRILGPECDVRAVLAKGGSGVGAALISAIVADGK

[13] = molecular target: DNA dC->dU-editing enzyme APOBEC-3A (Homo sapiens, UniProt P31941); assay: Dose Response confirmation of small molecule APOBEC3A DNA Deaminase Inhibitors via a fluorescence-based single-stranded DNA deaminase assay. [Related pubchem assays (depositor defined):AID493011, AID493024]; assay type: functional
DNA dC->dU-editing enzyme APOBEC-3A, sequence (P31941 whole entry): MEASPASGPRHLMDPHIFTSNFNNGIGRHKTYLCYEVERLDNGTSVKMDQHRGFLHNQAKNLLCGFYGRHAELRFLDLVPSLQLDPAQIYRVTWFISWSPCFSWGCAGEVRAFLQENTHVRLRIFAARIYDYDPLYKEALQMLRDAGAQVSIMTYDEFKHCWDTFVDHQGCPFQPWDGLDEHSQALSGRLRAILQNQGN

[14] = molecular target: DNA dC->dU-editing enzyme APOBEC-3G (Homo sapiens, UniProt Q9HC16); assay type: functional;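 further: Dose-response counterscreen measuring inhibition of APOBEC3G DNA deaminase activity, run while confirming APOBEC3A inhibitors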
[15] = molecular target: T6, Corticotropin-releasing factor receptor 2/Corticotropin-releasing factor-binding protein (Homo sapiens, UniProt P24387+Q13324); assay: Dose Response confirmation of uHTS hits for small molecule antagonists of the CRF-binding protein and CRF-R2 receptor complex.; assay type: functional; conditions: read-out: IC50_Mean
T6 sequence (Q13324 whole entry): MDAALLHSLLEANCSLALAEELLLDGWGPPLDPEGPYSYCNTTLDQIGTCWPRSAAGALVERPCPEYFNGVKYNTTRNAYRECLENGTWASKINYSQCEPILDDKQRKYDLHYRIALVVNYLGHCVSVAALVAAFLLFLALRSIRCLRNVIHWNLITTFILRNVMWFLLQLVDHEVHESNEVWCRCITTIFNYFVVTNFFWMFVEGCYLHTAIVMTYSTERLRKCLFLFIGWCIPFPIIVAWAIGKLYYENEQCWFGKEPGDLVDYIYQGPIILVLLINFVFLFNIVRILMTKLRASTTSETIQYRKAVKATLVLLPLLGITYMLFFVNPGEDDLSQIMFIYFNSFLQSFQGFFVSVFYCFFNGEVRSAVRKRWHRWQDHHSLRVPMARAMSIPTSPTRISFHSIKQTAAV
T6 sequence (P24387 whole entry): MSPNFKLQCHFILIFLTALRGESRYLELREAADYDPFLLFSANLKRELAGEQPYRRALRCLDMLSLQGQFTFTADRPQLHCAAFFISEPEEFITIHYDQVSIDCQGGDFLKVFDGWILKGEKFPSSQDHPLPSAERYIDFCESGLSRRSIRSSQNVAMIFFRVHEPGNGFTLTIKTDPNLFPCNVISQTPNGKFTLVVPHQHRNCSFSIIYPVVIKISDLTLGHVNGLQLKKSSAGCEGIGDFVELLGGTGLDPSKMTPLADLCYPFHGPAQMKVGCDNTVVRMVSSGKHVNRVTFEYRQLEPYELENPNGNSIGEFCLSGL

[16] = molecular target: T6, Corticotropin-releasing factor receptor 2/Corticotropin-releasing factor-binding protein; assay: activators of CRF receptor 2 with binding protein – uHTS hits, confirmation (AID 602473); assay type: functional; conditions: read-out: EC50_Mean
[17] = molecular target: T7, Tyrosine-protein phosphatase non-receptor type 7 (Homo sapiens, UniProt P35236); assay type: functional
T7 sequence (P35236 whole entry): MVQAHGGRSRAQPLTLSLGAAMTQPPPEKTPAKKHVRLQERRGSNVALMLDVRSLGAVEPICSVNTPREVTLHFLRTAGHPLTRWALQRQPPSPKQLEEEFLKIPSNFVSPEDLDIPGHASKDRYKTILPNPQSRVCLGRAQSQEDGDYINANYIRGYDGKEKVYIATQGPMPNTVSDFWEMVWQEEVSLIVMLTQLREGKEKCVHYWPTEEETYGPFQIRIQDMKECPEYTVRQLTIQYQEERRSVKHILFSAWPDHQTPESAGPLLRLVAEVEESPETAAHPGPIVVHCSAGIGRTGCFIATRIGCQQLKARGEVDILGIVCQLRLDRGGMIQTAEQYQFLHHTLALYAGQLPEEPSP

[18] = molecular target: T8, Dual specificity protein phosphatase 6 (Rattus norvegicus, UniProt Q64346)
T8 sequence (Q64346 whole entry): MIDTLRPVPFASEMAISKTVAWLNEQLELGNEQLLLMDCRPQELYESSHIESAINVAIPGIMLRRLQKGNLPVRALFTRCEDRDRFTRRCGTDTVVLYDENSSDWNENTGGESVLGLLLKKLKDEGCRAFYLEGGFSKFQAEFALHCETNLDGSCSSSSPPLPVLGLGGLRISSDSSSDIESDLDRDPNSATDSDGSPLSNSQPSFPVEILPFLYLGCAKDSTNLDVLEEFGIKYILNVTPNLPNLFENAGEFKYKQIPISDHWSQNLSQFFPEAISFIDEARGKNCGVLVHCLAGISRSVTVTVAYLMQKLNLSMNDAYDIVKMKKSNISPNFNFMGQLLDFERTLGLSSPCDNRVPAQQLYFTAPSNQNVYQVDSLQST

[19] = molecular target: T8, Dual specificity protein phosphatase 6; assay type: functional
Large T antigen = Large T antigen (Simian virus 40, UniProt P03070); assay type: functional, Betapolyomavirus macacae;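 further: Confirmatory-stage PubChem screen for compounds that inhibit SV40 T antigen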
[20] = viability of PTEN-deleted HCT116 cells – cell-based, HCT116 PTEN knockout, dose response (AID 1047); assay type: functional;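 further: HCT116 colon tumor cells with PTEN knocked out; cells exposed to compound for 60 hours before readout; potency for loss of cell viability measured by luminescence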
[21] = viability of HCT116 lacking mutant beta-catenin – cell-based, human colon tumor, dose response (AID 1045); assay type: functional;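 further: HCT116 colon tumor cells with beta catenin knocked out; cells exposed to compound for 60 hours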
[22] = Luminescence Cell-Based Dose Retest to Confirm Inhibitors of Cancer Stem Cells. [Related pubchem assays (depositor defined):AID2717, AID2721]; assay type: functional, Homo sapiens; conditions: Homo sapiens
INS1 = assay: INS-1E survival protection against cytokine death – cell-based, luminescence, retest, dose response (AID 449756); assay type: functional; conditions: Rattus norvegicus;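 further: cell death triggered by IL-1 beta plus TNF-alpha plus IFN-gamma mixture; protective hits raise ATP signal compared with cytokine alone wells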
[23] = molecular target: Induced myeloid leukemia cell differentiation protein Mcl-1 (Homo sapiens, UniProt Q07820); assay type: functional

Peroxisome proliferator-activated receptor gamma/Nuclear receptor coactivator 2, sequence (P37231 whole entry): as the sequence (P37231 whole entry) above
Peroxisome proliferator-activated receptor gamma/Nuclear receptor coactivator 2, sequence (Q15596 whole entry, further chain): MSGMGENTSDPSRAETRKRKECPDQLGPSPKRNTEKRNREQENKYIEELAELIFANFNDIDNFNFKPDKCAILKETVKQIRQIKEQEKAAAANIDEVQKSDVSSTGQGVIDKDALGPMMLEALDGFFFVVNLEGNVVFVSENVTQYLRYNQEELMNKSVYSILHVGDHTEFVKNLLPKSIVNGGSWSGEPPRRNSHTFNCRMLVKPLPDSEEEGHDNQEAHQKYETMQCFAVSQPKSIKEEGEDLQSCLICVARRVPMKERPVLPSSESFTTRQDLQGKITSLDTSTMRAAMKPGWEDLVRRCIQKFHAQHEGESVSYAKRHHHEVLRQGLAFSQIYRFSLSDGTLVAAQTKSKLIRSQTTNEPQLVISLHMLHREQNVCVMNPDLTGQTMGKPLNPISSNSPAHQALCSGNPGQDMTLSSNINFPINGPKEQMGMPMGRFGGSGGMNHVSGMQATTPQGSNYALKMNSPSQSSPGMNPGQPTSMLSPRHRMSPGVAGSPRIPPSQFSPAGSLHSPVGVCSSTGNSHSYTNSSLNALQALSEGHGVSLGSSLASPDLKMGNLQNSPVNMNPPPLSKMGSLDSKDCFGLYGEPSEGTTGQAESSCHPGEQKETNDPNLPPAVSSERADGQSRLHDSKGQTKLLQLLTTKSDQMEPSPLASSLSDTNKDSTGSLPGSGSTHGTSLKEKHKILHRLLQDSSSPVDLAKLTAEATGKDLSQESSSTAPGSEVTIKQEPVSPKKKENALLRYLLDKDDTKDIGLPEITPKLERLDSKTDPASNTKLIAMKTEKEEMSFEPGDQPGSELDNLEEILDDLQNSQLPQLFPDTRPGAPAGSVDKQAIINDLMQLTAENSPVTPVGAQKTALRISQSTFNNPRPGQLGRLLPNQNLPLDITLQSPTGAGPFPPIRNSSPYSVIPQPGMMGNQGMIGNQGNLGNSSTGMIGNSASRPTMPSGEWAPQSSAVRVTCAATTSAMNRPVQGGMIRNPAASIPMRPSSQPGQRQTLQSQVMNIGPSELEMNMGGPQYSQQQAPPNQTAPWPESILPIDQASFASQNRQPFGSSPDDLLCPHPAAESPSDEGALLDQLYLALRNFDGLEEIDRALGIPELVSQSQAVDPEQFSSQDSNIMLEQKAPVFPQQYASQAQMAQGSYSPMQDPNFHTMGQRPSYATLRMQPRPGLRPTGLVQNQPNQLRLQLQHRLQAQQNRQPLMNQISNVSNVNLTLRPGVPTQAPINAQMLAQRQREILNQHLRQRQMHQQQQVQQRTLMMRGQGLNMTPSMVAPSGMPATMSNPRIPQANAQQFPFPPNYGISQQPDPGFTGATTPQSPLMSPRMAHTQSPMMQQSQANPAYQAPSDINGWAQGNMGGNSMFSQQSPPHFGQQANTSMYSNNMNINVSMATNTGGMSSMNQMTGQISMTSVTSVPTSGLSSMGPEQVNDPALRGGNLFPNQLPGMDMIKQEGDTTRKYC

Cc1nc(SCC(=O)c2ccc(Cl)s2)c2oc3ccccc3c2n1
EC50 [1]: > 79.4 µM (not active)
EC50 [2]: > 79.4 µM (not active)
EC50 [3]: > 79.4 µM (not active)
CC50 (Vero): 23.6 µM (active)
AC50 (Cytochrome P450 3A4 [4]): 2.82 µM (inconclusive)

Nc1c2c(nc3sc4c(c13)CCCC4)CCCCCC2
IC50 [5]: 26.7 µM (not active)
IC50 [6]: > 35 µM (not active)

COc1ccccc1C(=O)Nc1cccc(-c2cn3ccsc3n2)c1
EC50 [1]: > 79.4 µM (not active)
EC50 [2]: > 79.4 µM (not active)
EC50 [3]: > 79.4 µM (not active)

COC(=O)N1CCC2(CC1)CN(c1ccccc1)C2
AC50 (Cytochrome P450 3A4 [7]): inconclusive

O=S(=O)(Nc1cnc2ccccc2c1)c1cc(Cl)ccc1Cl
IC50 [8]: > 100 µM (not active)
IC50 [9]: 49.6 µM (active)

CCc1ccc2c(c1)Sc1ccccc1CC2N1CCN(C)CC1 (stereo not drawn)
CC50 [10]: 15.8 µM (active)
CC50 [11]: > 20 µM (active)
CC50 [12]: > 20 µM (active)
IC50 (cells): 14.1 µM (active)

O=C(O)c1ccc(Cl)cc1NC(=O)C1CCOCC1
IC50 (Hexokinase): > 25 µM (inactive)

COc1ccc(C(=O)Nc2cc(Cl)ccc2C(=O)O)cn1
IC50 (Hexokinase): > 25 µM (inactive)

CC(C)(C)c1ccc(C(=O)Nc2cc(Cl)ccc2C(=O)O)cc1
IC50 (Hexokinase): 2.12 µM (active)

C[N+]1(CC(O)COc2ccccc2)CCN(C(=O)c2ccc([N+](=O)[O-])cc2)CC1 (stereo not drawn)
IC50 [13]: 2.82 µM (active)
IC50 [14]: 3.44 µM (active)

C/C(=N\OC(=O)c1ccc(OC(C)C)cc1)c1ccc(C)c(C)c1
IC50 [5]: 7.08 µM (active)
IC50 [6]: 7.94 µM (active)
IC50 [15]: > 47.1 µM (inactive)
EC50 [16]: > 53 µM (inactive)

CCn1c(=O)n(Cc2ccc([N+](=O)[O-])cc2)c(=O)n([C@@H](Cc2ccccc2)C(=O)O)c1=O
IC50 [17]: > 100 µM (not active)
IC50 [8]: > 100 µM (not active)
IC50 [18]: > 100 µM (inactive)
IC50 [19]: > 100 µM (inactive)

COc1cc(SC#N)ccc1/N=C/c1c(C)[nH]n(-c2ccc(C)cc2)c1=O
EC50 [1]: > 79.4 µM (not active)
EC50 [2]: > 79.4 µM (not active)
EC50 [3]: > 79.4 µM (not active)
IC50 (Large T antigen): 21.2 µM (active)
EC50 [20]: 56.6 µM (active)
EC50 [21]: 107 µM (active)
AC50 [22]: 2.9 µM (active)
AC50 (INS1): 3.6 µM (active)

Cc1cc2ncn(/N=C/c3ccc([N+](=O)[O-])s3)c2cc1C
CC50 (Vero): 18.5 µM (active)
EC50 [20]: 3.36 µM (active)
EC50 [21]: 3.33 µM (active)
IC50 [23]: 3.27 µM (active)
CC50 [10]: 6.75 µM (active)
CC50 [11]: 14 µM (active)
CC50 [12]: 17.1 µM (active)
IC50 (cells): 1.25 µM (active)

O=C(CSCc1ccc(Cl)cc1)N/N=C/c1c(Cl)cccc1Cl
IC50 [5]: 8.3 µM (active)
IC50 [6]: 6.47 µM (active)
